The values that follow come from patent US5034512A, “Branched backbone renin inhibitors” (Warner-Lambert Company, priority 1988, dated 1991).

pIC50: −log10 of the molar value.

For one assay, the target named is T1, renin (Homo sapiens, UniProt P00797).
T1 sequence (P00797 67-406): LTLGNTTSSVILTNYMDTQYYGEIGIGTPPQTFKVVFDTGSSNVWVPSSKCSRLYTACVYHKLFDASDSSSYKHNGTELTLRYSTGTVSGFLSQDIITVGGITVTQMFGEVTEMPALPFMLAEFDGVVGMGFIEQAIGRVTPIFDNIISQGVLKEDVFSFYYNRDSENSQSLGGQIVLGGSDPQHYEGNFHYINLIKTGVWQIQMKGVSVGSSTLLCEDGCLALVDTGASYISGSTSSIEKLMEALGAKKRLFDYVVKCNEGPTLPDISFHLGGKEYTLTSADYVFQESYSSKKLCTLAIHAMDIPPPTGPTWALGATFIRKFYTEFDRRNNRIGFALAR
Put plainly: in vitro renin inhibitory activity, radioimmunoassay for angiotensin I. To be noted: 10^-6 M test compound; renin incubated two hours at 37° with angiotensinogen. It counts as biochemical. On the procedure: The effectiveness of the aforementioned compound is determined by a test for in vitro renin inhibitory activity. This activity is determined by a standard radioimmunoassay for angiotensin I. In this assay the enzyme, renin, incubated for two hours at 37° in the presence of a substrate, angiotensinogen, generates the product, angiotensin I. Test compounds are added to the incubation mixture. Relative activity is reported as the IC50, which is the molar concentration of test compound causing a 50% inhibition of the renin activity. Relative activity is also reported as % inhibition at 10^-6 M,
What is called inhibition is the percentage by which the read-out fell short of the control. As for `CNC(=O)CCNC(=O)C[C@H](NC(=O)C(Cc1cccc2ccccc12)Cc1cccc2ccccc12)C(=O)N[C@@H](CC1CCCCC1)[C@@H](O)CC(=O)N[C@@H](CC(C)C)C(=O)NCc1ccccc1` [Example 6], the inhibition at 1 µM was determined as 47%.

The same assay, now with this note: renin incubated two hours at 37° with angiotensinogen; read-out: IC50 (molar concentration of test compound causing a 50% inhibition of the renin activity).
For the molecule `CC[C@H](C)CNC(=O)C[C@H](O)[C@H](CC(C)C)NC(=O)[C@H](CCCCNC(=O)CNC(=O)C(F)F)NC(=O)C(Cc1cccc2ccccc12)Cc1cccc2ccccc12` [Example 18], the pIC50 is 7.21.

For the molecule `CC[C@H](C)CNC(=O)C[C@H](O)[C@H](CC(C)C)NC(=O)[C@H](CCC(=O)NCC(=S)NC)NC(=O)C(Cc1cccc2ccccc12)Cc1cccc2ccccc12` [Example 1], the pIC50 was 5.05.

Consider `CNC(=S)CNC(=O)C[C@H](NC(=O)C(Cc1cccc2ccccc12)Cc1cccc2ccccc12)C(=O)N[C@@H](CC1CCCCC1)[C@@H](O)CC(=O)N[C@@H](CC(C)C)C(=O)NCc1ccccc1` [Example 5], for which the pIC50 is 6.62.

Turning to `CC[C@H](C)CNC(=O)C[C@H](O)[C@H](CC(C)C)NC(=O)[C@H](CCCCNC(=O)CNC(=O)C(C)C)NC(=O)C(Cc1cccc2ccccc12)Cc1cccc2ccccc12` [Example 17], the pIC50 is 7.13.

Consider `CC[C@H](C)CNC(=O)C[C@H](O)[C@H](CC(C)C)NC(=O)[C@H](CCC(=O)NCC(=O)NC)NC(=O)C(Cc1cccc2ccccc12)Cc1cccc2ccccc12` [Example 2], for which the pIC50 was 4.82.

`CC[C@H](C)CNC(=O)C[C@H](O)[C@H](CC(C)C)NC(=O)[C@H](CCCCNC(=O)[C@@H]1CS(=O)(=O)CN1C(C)=O)NC(=O)C(Cc1cccc2ccccc12)Cc1cccc2ccccc12` [Example 14]: the pIC50 is 6.33.

On to `COC(=O)[C@H](CCS(C)(=O)=O)NC(=O)C[C@H](NC(=O)C(Cc1cccc2ccccc12)Cc1cccc2ccccc12)C(=O)N[C@@H](CC1CCCCC1)[C@@H](O)CC(=O)N[C@@H](CC(C)C)C(=O)NCc1ccccc1` [Example 3], for which the pIC50 is 5.46.

`CC[C@H](C)CNC(=O)C[C@H](O)[C@H](CC(C)C)NC(=O)[C@H](CCCCNC(=O)CNC(=S)NC)NC(=O)C(Cc1cccc2ccccc12)Cc1cccc2ccccc12` [Example 10]: the pIC50 was 7.10.

Take `CC[C@H](C)CNC(=O)C[C@H](O)[C@H](CC(C)C)NC(=O)[C@H](CCCCNC(=O)CNC(N)=N[N+](=O)[O-])NC(=O)C(Cc1cccc2ccccc12)Cc1cccc2ccccc12` [Example 19]: the pIC50 is 8.10.

Regarding `CC[C@H](C)CNC(=O)C[C@H](O)[C@H](CC(C)C)NC(=O)[C@H](CCCCNC(=O)CNC(=O)OCc1ccccc1)NC(=O)C(Cc1cccc2ccccc12)Cc1cccc2ccccc12` [Example 8], the pIC50 was 7.08.

With `CC[C@H](C)CNC(=O)C[C@H](O)[C@H](CC(C)C)NC(=O)[C@H](CCCCNC(=O)CNC(=NC#N)NC)NC(=O)C(Cc1cccc2ccccc12)Cc1cccc2ccccc12` [Example 20], the pIC50 was 7.52.

On to `CC[C@H](C)CNC(=O)C[C@H](O)[C@H](CC(C)C)NC(=O)[C@H](CCCCNC(=O)[C@@H]1CCC(=O)N1)NC(=O)C(Cc1cccc2ccccc12)Cc1cccc2ccccc12` [Example 15], for which the pIC50 is 7.37.

As to `CC[C@H](C)CNC(=O)C[C@H](O)[C@H](CC(C)C)NC(=O)[C@H](CCCCNC(=O)CCNC(C)=O)NC(=O)C(Cc1cccc2ccccc12)Cc1cccc2ccccc12` [Example 16], the pIC50 is 7.60.

On to `CC[C@H](C)CNC(=O)C[C@H](O)[C@H](CC(C)C)NC(=O)[C@H](CCCCNC(=O)[C@@H]1CSCN1C(C)=O)NC(=O)C(Cc1cccc2ccccc12)Cc1cccc2ccccc12` [Example 13], for which the pIC50 is 5.96.

Turning to `CC[C@H](C)CNC(=O)C[C@H](O)[C@H](CC(C)C)NC(=O)[C@H](CCCCNC(=O)CN)NC(=O)C(Cc1cccc2ccccc12)Cc1cccc2ccccc12` [Example 9], the pIC50 was 6.15.

Turning to `CC[C@H](C)CNC(=O)C[C@H](O)[C@H](CC1CCCCC1)NC(=O)[C@H](CCCCNC(=O)CNC(C)=O)NC(=O)C(Cc1cccc2ccccc12)Cc1cccc2ccccc12` [Example 12], the pIC50 is 7.57.
